SMILES strings stand for the structures. Values joined by “and” are separate entries in the source; they are usually repeats but may differ in a detail not shown here. Identical values can stand only once.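 The compound was tested at five concentrations on cells cultured in 96-well plates, with a 48-hour exposure period. At the GI50, growth is halved. TGI: total growth inhibition.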 A value given as a limit tells only on which side of the number the result lay.

We go through twelve compounds from PubChem BioAssay (NCI).

Among the test systems are HCT-116 colon; HOP-62 NSCLC; HT29 colon; IGROV1 ovarian; LOX IMVI melanoma; MALME-3M melanoma; OVCAR-8 ovarian; SF-268 CNS; SW-620 colon; U251 CNS.
Common to all, as to assay: NCI-60 cell line screen, 48 h

With `Cn1c(-c2ccccc2)c(/C=C/C2=[N+](C)c3ccccc3C2(C)C)c2ccccc21`, the GI50 is 0.593 µM in the assay with HCT-116 colon; 2.15 µM in the assay on HOP-62 NSCLC; 0.711 µM in the assay on HT29 colon; 1.87 µM with IGROV1 ovarian; 0.527 µM in the assay with LOX IMVI melanoma; 0.68 µM with MALME-3M melanoma. The GI50 is 0.84 µM in the assay on OVCAR-8 ovarian, 1.32 µM in the assay with SF-268 CNS, 1.52 µM with SW-620 colon and 0.46 µM with U251 CNS. The TGI came out at 7.11 µM in the assay with HCT-116 colon; 12.6 µM in the assay with HOP-62 NSCLC; 7.59 µM with HT29 colon; 6.07 µM in the assay with IGROV1 ovarian; 3.25 µM in the assay on LOX IMVI melanoma; 3.1 µM with MALME-3M melanoma. The TGI was 8.95 µM with OVCAR-8 ovarian, 12.9 µM in the assay with SF-268 CNS, 12.5 µM with SW-620 colon and 12.8 µM with U251 CNS.

Consider `C=C1C(=O)O[C@H]2[C@H]1CC/C(COC(=O)OC/C1=C/CC[C@@]3(C)O[C@H]3[C@H]3OC(=O)[C@@H](CN(C)C)[C@@H]3CC1)=C\CC[C@@]1(C)O[C@@H]21`, for which the GI50 was 1.13 µM with HCT-116 colon; 12.2 µM in the assay with HOP-62 NSCLC; 0.996 µM in the assay with HT29 colon; 2.3 µM in the assay on IGROV1 ovarian; 1.47 µM with LOX IMVI melanoma; 1.26 µM in the assay with MALME-3M melanoma. Moreover, the GI50 in the assay on OVCAR-8 ovarian is 2.31 µM; with SF-268 CNS, 3.07 µM; with SW-620 colon it was 0.445 µM; with U251 CNS, 3.3 µM. Further, the TGI amounted to 2.35 µM in the assay with HCT-116 colon; 26.5 µM with HOP-62 NSCLC; 2.47 µM in the assay on HT29 colon; 8.22 µM in the assay with IGROV1 ovarian; 2.97 µM in the assay on LOX IMVI melanoma; 3.12 µM in the assay on MALME-3M melanoma. The TGI in the assay with OVCAR-8 ovarian was 10.2 µM; with SF-268 CNS, 13.7 µM; in the assay with SW-620 colon it was 1.85 µM; in the assay with U251 CNS, 12.5 µM.

In the case of `COc1ccc(NC(=O)c2sc3nc(C)c(C(=O)/C=C/c4cccc(OC)c4)cc3c2N)cc1`, the GI50 is 0.773 µM in the assay on HCT-116 colon; 1.29 µM with HOP-62 NSCLC; 1.02 µM in the assay with HT29 colon; 1.03 µM with IGROV1 ovarian; 0.906 µM in the assay on LOX IMVI melanoma; 3.85 µM in the assay on MALME-3M melanoma. For the same compound, the GI50 is 1.59 µM with OVCAR-8 ovarian, 2.07 µM with SF-268 CNS, 1.26 µM in the assay on SW-620 colon and 1.01 µM with U251 CNS. For the same compound, the TGI was 1.7 µM in the assay on HCT-116 colon; 3.47 µM in the assay on HOP-62 NSCLC; 2.35 µM with HT29 colon; 2.83 µM in the assay on IGROV1 ovarian; 1.71 µM in the assay on LOX IMVI melanoma; 45 µM in the assay on MALME-3M melanoma. The TGI in the assay with OVCAR-8 ovarian is more than 50 µM; in the assay on SF-268 CNS it was 14.1 µM; in the assay on SW-620 colon, 3.79 µM; with U251 CNS it was 2.14 µM.

Regarding `Cc1ccc2c(c1)C(=O)c1c-2c(OCCCN(C)C)nc2ccccc12`, the GI50 with HCT-116 colon was 0.718 µM; with HOP-62 NSCLC, 2.52 µM; in the assay on HT29 colon it was 0.71 µM; with IGROV1 ovarian, 1.74 µM; with LOX IMVI melanoma, 1.18 µM; in the assay with MALME-3M melanoma it was 1.54 µM. Besides, the GI50 was 2.93 µM in the assay with OVCAR-8 ovarian, 2.3 µM in the assay with SF-268 CNS, 0.587 µM with SW-620 colon and 4.13 µM in the assay with U251 CNS. Also, the TGI with HCT-116 colon stood at 2.12 µM; in the assay with HOP-62 NSCLC, 16 µM; in the assay on HT29 colon, 3.33 µM; in the assay with IGROV1 ovarian, 9.94 µM; with LOX IMVI melanoma it was 2.52 µM; in the assay with MALME-3M melanoma, 3.29 µM. Besides, the TGI in the assay on OVCAR-8 ovarian worked out at 17 µM; in the assay on SF-268 CNS it was 12.9 µM; in the assay on SW-620 colon, 2.02 µM; with U251 CNS, 14.8 µM.

On to `O=C(C#Cc1ccccc1)C1=Cc2ccccc2OC1`, for which the TGI was 4.21 µM in the assay with HCT-116 colon; 29.3 µM in the assay on HOP-62 NSCLC; 5.02 µM with HT29 colon; 6.37 µM with IGROV1 ovarian; 6.32 µM with LOX IMVI melanoma; 13.2 µM in the assay on MALME-3M melanoma. The TGI in the assay on OVCAR-8 ovarian is 5.85 µM; with SF-268 CNS, 12.5 µM; in the assay with SW-620 colon it was 9.84 µM; in the assay on U251 CNS, more than 100 µM.

With `Cc1c(N)nc(C(CC(N)=O)NCC(N)C(N)=O)nc1C(=O)NC(C(=O)NC(C)C(O)C(C)C(=O)NC(C(=O)NCCc1nc(-c2nc(C(=O)NCCCNC(C)c3ccccc3)cs2)cs1)C(C)O)C(OC1OC(CO)C(O)C(O)C1OC1OC(CO)C(O)C(OC(N)=O)C1O)c1cnc[nH]1` (stereo not given), the GI50 with HCT-116 colon is 1.76 µM; in the assay on HOP-62 NSCLC, 0.0845 µM; with IGROV1 ovarian it was 8.21 µM; in the assay on LOX IMVI melanoma, 0.479 µM; in the assay on MALME-3M melanoma it was 1.84 µM; in the assay with SF-268 CNS, 11.1 µM. Also, the GI50 was 24.8 µM in the assay on SW-620 colon and 2.32 µM in the assay with U251 CNS. Moreover, the TGI is 49.4 µM and > 100 µM in the assay with HCT-116 colon; 1.07 µM and 3.01 µM in the assay with HOP-62 NSCLC; 50 µM and > 100 µM with HT29 colon; 50 µM and > 100 µM with IGROV1 ovarian; 2.3 µM and 10.3 µM in the assay on LOX IMVI melanoma; 37.2 µM and > 100 µM in the assay on MALME-3M melanoma. Moreover, the TGI in the assay with OVCAR-8 ovarian is 50 µM and > 100 µM; in the assay with SF-268 CNS, 50 µM and 94.7 µM; in the assay with SW-620 colon it was 50 µM and > 100 µM; in the assay with U251 CNS, 24 µM and 56.6 µM.

Turning to `C#CC1(O)CCC2[C@@H]3CCc4cc(Oc5nc(F)nc(-c6c7ccccc7c(SCC)n6CCC)n5)ccc4C3CC[C@@]21C` (stereo not given in full), the TGI in the assay with HCT-116 colon, in the assay on HOP-62 NSCLC, in the assay with HT29 colon, in the assay on IGROV1 ovarian, in the assay with LOX IMVI melanoma and in the assay with MALME-3M melanoma was more than 100 µM each time. In addition, the TGI in the assay with OVCAR-8 ovarian, with SF-268 CNS, in the assay on SW-620 colon and in the assay on U251 CNS was more than 100 µM throughout.

For the compound `O=C(Nc1ccccc1-c1nn(CN2CCNCC2)c(=S)n(CN2CCNCC2)c1=O)C(F)(F)F`, the TGI in the assay with HCT-116 colon came to 32.5 µM; in the assay on HOP-62 NSCLC, 46.6 µM; with HT29 colon, 57.5 µM; in the assay on IGROV1 ovarian, 46.5 µM; in the assay on LOX IMVI melanoma it was 36.5 µM; in the assay on MALME-3M melanoma, 32.9 µM. Further, the TGI stood at 53.5 µM in the assay with OVCAR-8 ovarian, 41.8 µM with SF-268 CNS, 22.2 µM in the assay with SW-620 colon and 31.7 µM in the assay on U251 CNS.

As to `Nc1nc2cc(CC[C@H]3C[C@@H](n4ccc5c(N)ncnc54)[C@H](O)[C@@H]3O)ccc2cc1Br`, the GI50 in the assay on HCT-116 colon was 2.45 µM; in the assay with HOP-62 NSCLC, 8.91 µM; with HT29 colon, 2.46 µM; with IGROV1 ovarian it was 10.2 µM; in the assay with LOX IMVI melanoma it was 3.95 µM; in the assay with MALME-3M melanoma, 7.42 µM. For the same compound, the GI50 in the assay with OVCAR-8 ovarian was 7.73 µM; in the assay on SF-268 CNS it was 11.3 µM; with SW-620 colon it was 13.3 µM; with U251 CNS, 13 µM. The TGI in the assay on HCT-116 colon was determined as 19.9 µM; with HOP-62 NSCLC it was 24.2 µM; with HT29 colon it was 24.3 µM; in the assay on IGROV1 ovarian, 23.1 µM; in the assay with LOX IMVI melanoma, 22.6 µM; in the assay with MALME-3M melanoma, 21.5 µM. Besides, the TGI is 34.1 µM in the assay on OVCAR-8 ovarian, 27 µM with SF-268 CNS, 27.7 µM with SW-620 colon and 29.8 µM with U251 CNS.

For the compound `CO[C@H]1C[C@](C)(O)Cc2cc3c(c(O)c21)C(=O)c1c(O)cc2c(c1C3=O)O[C@@H]1O[C@@]2(C)[C@H](O)[C@@H](N(C)C)[C@@H]1O`, the GI50 in the assay on HCT-116 colon is 1.13 µM; with HOP-62 NSCLC it was 0.48 µM; with HT29 colon it was 1.56 µM; in the assay with LOX IMVI melanoma, 0.509 µM and 1.06 µM; in the assay with OVCAR-8 ovarian, 1.07 µM; in the assay with SF-268 CNS, 1.52 µM. The GI50 is 0.847 µM in the assay with SW-620 colon and 0.461 µM in the assay with U251 CNS. For the same compound, the TGI in the assay on HCT-116 colon is 2.51 µM and 3.03 µM; in the assay with HOP-62 NSCLC, 2.57 µM and 1.5 µM; in the assay on HT29 colon it was 5.79 µM and 15.6 µM; in the assay with IGROV1 ovarian, 9.16 µM and 18.7 µM; in the assay on LOX IMVI melanoma, 2.15 µM and 2.71 µM; in the assay with MALME-3M melanoma it was 3.44 µM and 13.3 µM. Also, the TGI with OVCAR-8 ovarian was 3.36 µM and 4.97 µM; with SF-268 CNS it was 7.01 µM and 11.9 µM; in the assay with SW-620 colon, 3.87 µM and 7.69 µM; in the assay with U251 CNS, 1.58 µM and 2.48 µM.

As to `N#CC(C#N)=Cc1ccc(CP(=O)(O)O)cc1`, the TGI in the assay on HCT-116 colon, in the assay with HOP-62 NSCLC, in the assay with HT29 colon, with IGROV1 ovarian, with LOX IMVI melanoma and in the assay with MALME-3M melanoma was more than 100 µM throughout. The TGI in the assay with OVCAR-8 ovarian, in the assay with SF-268 CNS, in the assay with SW-620 colon and with U251 CNS was more than 100 µM in each case.

Regarding `COC(=O)c1c2c(c(C)[n+]([O-])c1C)C(=O)C=C(NCc1cccc(Cl)c1)C2=O`, the GI50 with HCT-116 colon is 0.284 µM; with HOP-62 NSCLC, 1.13 µM; in the assay on HT29 colon, 0.31 µM; with IGROV1 ovarian it was 0.221 µM; in the assay on LOX IMVI melanoma it was 0.0687 µM; in the assay with MALME-3M melanoma, 0.136 µM. The GI50 is 0.275 µM with OVCAR-8 ovarian, 0.737 µM in the assay on SF-268 CNS, 0.244 µM in the assay on SW-620 colon and 0.367 µM in the assay on U251 CNS. Besides, the TGI with HCT-116 colon was found to be 0.976 µM; in the assay with HOP-62 NSCLC, 2.8 µM; in the assay with IGROV1 ovarian, 1.09 µM; with LOX IMVI melanoma, 1.35 µM; in the assay on MALME-3M melanoma, 0.309 µM; in the assay with OVCAR-8 ovarian it was 1.21 µM. Further, the TGI with SF-268 CNS was 3.15 µM; with SW-620 colon it was 1.23 µM; in the assay with U251 CNS, 1.55 µM.
